Results from the supplement of paper PMC10331698.
± gives the standard deviation of the averaged measurements.

Columns and labels:
Assay in all cases: level (log10 ratio to DMSO vehicle control); higher = higher biomarker level / cell amount than vehicle control
[1] = compound: C=CC(=O)OCC(F)(F)C(F)(F)C(F)(F)C(F)(F)COC(=O)C=C [1H,1H,6H,6H-Perfluorohexane-1,6-diol diacrylate]; conditions: 6700 nM; in DMSO
Experimental: (§1)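 BioMAP Diversity Plus panel of 12 human primary cell co-culture systems (3C, 4H, LPS, SAg, BT, BF4T, BE3C, CASM3C, HDF3CGF, KF3CT, MyoF, Mphg). Compounds were added 1 h before stimulation and left for 24 h (MyoF 48 h; BT 72 h for soluble read-outs or 6 d for IgG). Biomarkers were read by ELISA, cytotoxicity by SRB, PBMC viability and proliferation by Alamar Blue. Each well value was divided by the mean of 8 DMSO control wells on the same plate and log10 transformed; duplicate blinded samples were tested at 4 concentrations.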

[2] = compound: C=C(C)C(=O)OCC(F)(F)C(F)(F)C(F)(F)F [2,2,3,3,4,4,4-Heptafluorobutyl methacrylate]; conditions: in DMSO
Experimental: as §1

[3] = compound: Cc1ccc(S(=O)(=O)OCC(F)(F)C(F)(F)C(F)(F)C(F)(F)C(F)(F)C(F)F)cc1 [1H,1H,7H-Perfluoroheptyl 4-methylbenzenesulfonate]; conditions: in DMSO
Experimental: as §1

Test System	level (log10) [1]	level (log10) ([2]; 6700 nM)	level (log10) ([2]; 20000 nM)	level (log10) ([2]; 60000 nM)	level (log10) ([3]; 6700 nM)	level (log10) ([3]; 20000 nM)	level (log10) ([3]; 60000 nM)
BT:sIL-6	-0.546 ± 0.044	0.035 ± 0.0085	-0.0015 ± 0.028	-0.015 ± 0.041	0.0155 ± 0.011	-0.0245 ± 0.069	-0.0975 ± 0.021
BF4T:tPA	-0.0425 ± 0.0021	-0.0165 ± 0.032	0.0025 ± 0.00071	0.012 ± 0.023	-0.0305 ± 0.025	-0.0255 ± 0.022	-0.0555 ± 0.025
LPS:CD106/VCAM-1	-0.048 ± 0.0099	-0.0175 ± 0.013	-0.018 ± 0.0085	-0.02 ± 0.0085	0.01 ± 0.0071	0.006 ± 0.0014	0.025 ± 0.011
LPS:SRB	-0.0065 ± 0.0092	-0.012 ± 0.0014	-0.0075 ± 0.0021	0.002 ± 0.0042	0.006 ± 0.0099	-0.0075 ± 0.00071	-0.031 ± 0.0042
BE3C:CD54/ICAM-1	-0.021 ± 0.024	0.009 ± 0.023	-0.004 ± 0.034	0.005 ± 0.0014	0.014 ± 0.0057	-0.023 ± 0.02	-0.012 ± 0.0014
LPS:CD62E/E-Selectin	-0.0155 ± 0.0035	0.001 ± 0.0071	0.0075 ± 0.026	-0.0015 ± 0.0035	0.001 ± 0.0057	0.012 ± 0.027	0.0375 ± 0.0078
BT:PBMC Cytotoxicity	-0.186 ± 0.0042	0.0065 ± 0.035	0.005 ± 0.03	0.004 ± 0.055	-0.017 ± 0.0057	0.008 ± 0.0014	-0.017
SAg:CD69	-0.0645 ± 0.029	-0.016 ± 0.0099	-0.0215 ± 0.0021	-0.009 ± 0.0042	-0.01 ± 0.0099	0.0205 ± 0.016	0.0105 ± 0.00071
BF4T:CD90	-0.0265 ± 0.0021	0 ± 0.0071	-0.004 ± 0.0057	-0.007 ± 0.0042	-0.0095 ± 0.0064	-0.015 ± 0.014	-0.0175 ± 0.0092
BF4T:MMP-9	0.0005 ± 0.00071	-0.015 ± 0.025	-0.0265 ± 0.0078	0.0195 ± 0.049	0.0045 ± 0.012	-0.008 ± 0.011	-0.0435 ± 0.023
BE3C:EGFR	-0.034 ± 0.0099	0.0195 ± 0.03	0.0155 ± 0.029	0.012 ± 0.017	-0.0255 ± 0.0035	-0.03 ± 0.035	-0.027 ± 0.0028
BF4T:CCL2/MCP-1	-0.055 ± 0.02	0.026 ± 0.0042	0.0355 ± 0.0021	0.0345 ± 0.022	-0.026 ± 0.018	-0.124 ± 0.0085	-0.0585 ± 0.022
BE3C:CXCL11/I-TAC	-0.0115 ± 0.0021	0.0215 ± 0.03	0.0225 ± 0.005	0.017 ± 0.0085	-0.0205 ± 0.0064	-0.0385 ± 0.00071	-0.0185 ± 0.019
SAg:CD38	-0.0305 ± 0.0078	-0.0015 ± 0.03	0.007 ± 0.048	0.013 ± 0.068	0.005 ± 0.0057	-0.0075 ± 0.012	-0.0075 ± 0.012
BF4T:Keratin 8/18	0.0065 ± 0.029	-0.013 ± 0.035	-0.029 ± 0.014	-0.0245 ± 0.039	0.0085 ± 0.039	0.005 ± 0.028	-0.0285 ± 0.028
4H:CD87/uPAR	-0.04 ± 0.027	0.035 ± 0.03	0.012 ± 0.0014	0.055 ± 0.048	0.005 ± 0.0071	0.011 ± 0.02	-0.117 ± 0.032
SAg:CD40	-0.0895 ± 0.023	-0.038 ± 0.02	-0.032 ± 0.011	-0.023 ± 0.025	-0.0125 ± 0.0078	0.001 ± 0.031	-0.0135 ± 0.011
